Measurements reported in US6525001B1, “Substituted pyrimidine and pyridine herbicides” (Mid-American Commercialization Corporation, priority 1997, dated 2003).

Tests used:
Type in all cases: in vivo
[1] = system: bedstraw (Galium aparine); assay: Test B pre-/postemergence; parameters: key: 0 is no effect; 10 is complete control; conditions: Postemergence
Procedure, shortened: (§1)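 Compounds in a surfactant-containing, non-phytotoxic solvent blend are applied to freshly planted seed (preemergence) and, concurrently, to seedlings of 2 to 18 cm at 1–4 leaves (postemergence). Plants stay in the greenhouse twelve to sixteen days and are then scored visually from 0 (no effect) to 10 (complete control).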

[2] = system: blackgrass (Alopecurus myosuroides); assay: Test B pre-/postemergence; parameters: key: 0 is no effect; 10 is complete control; conditions: for Blackgrass plant response rating: Preemergence
Procedure, shortened: as §1

[3] = system: broadleaf signalgrass (Brachiaria decumbens); assay: Test B pre-/postemergence; parameters: key: 0 is no effect; 10 is complete control; conditions: for B. signalgrass plant response rating: Preemergence
Procedure, shortened: as §1

[4] = system: cocklebur (Xanthium strumarium); assay: Test B pre-/postemergence; parameters: key: 0 is no effect; 10 is complete control; conditions: for Plant response rating, Cocklebur: Postemergence; for Cocklebur plant response rating: Preemergence
Procedure, shortened: as §1

corn (Zea mays) = assay: Test B pre-/postemergence; parameters: key: 0 is no effect; 10 is complete control; conditions: for Corn plant response rating: Preemergence
Procedure, shortened: as §1

[5] = system: crabgrass (Digitaria sanguinalis); assay: Test B pre-/postemergence; parameters: key: 0 is no effect; 10 is complete control; conditions: for Crabgrass plant response rating: Preemergence
Procedure, shortened: as §1

[6] = system: giant foxtail (Setaria faberii); assay: Test B pre-/postemergence; parameters: key: 0 is no effect; 10 is complete control
Procedure, shortened: as §1

[7] = system: momingglory (Ipomoea hederacea); assay: Test B pre-/postemergence; parameters: key: 0 is no effect; 10 is complete control
Procedure, shortened: as §1

[8] = system: pigweed (Amaranthus retroflexus); assay: Test B pre-/postemergence; parameters: key: 0 is no effect; 10 is complete control
Procedure, shortened: as §1

[9] = system: purple nutsedge (Cyperus rotundus); assay: Test B pre-/postemergence; parameters: key: 0 is no effect; 10 is complete control
Procedure, shortened: as §1

rape (Brassica napus) = assay: Test B pre-/postemergence; parameters: key: 0 is no effect; 10 is complete control
Procedure, shortened: as §1

soybean (Glycine max) = assay: Test B pre-/postemergence; parameters: key: 0 is no effect; 10 is complete control
Procedure, shortened: as §1

[10] = system: sugar beet (Beta vulgaris); assay: Test B pre-/postemergence; parameters: key: 0 is no effect; 10 is complete control
Procedure, shortened: as §1

[11] = system: velvetleaf (Abutilon theophrasti); assay: Test B pre-/postemergence; parameters: key: 0 is no effect; 10 is complete control
Procedure, shortened: as §1

[12] = system: wheat (Triticum aestivum); assay: Test B pre-/postemergence; parameters: key: 0 is no effect; 10 is complete control
Procedure, shortened: as §1

wild oat (Avena fatua) = assay: Test B pre-/postemergence; parameters: key: 0 is no effect; 10 is complete control
Procedure, shortened: as §1

[13] = system: bamyardgrass (Echinochloa crus-galli); assay: Test B flood test
Procedure, shortened: (§2)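 Read-out is a visual response score from 0 (no effect) to 10 (complete control), assigned by comparison with untreated controls. Treatment was applied at the 2-leaf stage, and plants stayed in the greenhouse for twelve to sixteen days before scoring.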

[14] = system: duck salad (Heteranthera limosa); assay: Test B flood test
Procedure, shortened: as §2

rice (Oryza sativa) = assay: Test B flood test
Procedure, shortened: as §2

[15] = system: smallflower flatsedge (Cyperus difformis); assay: Test B flood test
Procedure, shortened: as §2

[16] = Rate 250 g/ha, Postemergence (so in the source)
[17] = Rate 62 g/ha, Postemergence (flood test)
[18] = Rate 125 g/ha, Postemergence, flood test
[19] = Rate 250 g/ha, Postemergence (flood test species)
[20] = Rate 125 g/ha, Postemergence section (flood test species)

## Cc1cnc(-c2ccc(F)cc2F)nc1Cc1cccc(C(F)(F)F)c1 [Compound 31]
[1]; Rate 62 g/ha
  Plant response rating, Bedstraw: 4
[1]; Rate 125 g/ha
  Plant response rating, Bedstraw: 6
[1]; Rate 250 g/ha
  Plant response rating, Bedstraw: 6
[2]; Rate 62 g/ha, Postemergence
  Plant response rating, Blackgrass: 2
[2]; Rate 62 g/ha
  Blackgrass plant response rating: 1
[2]; Rate 125 g/ha, Postemergence
  Plant response rating, Blackgrass: 2
[2]; Rate 125 g/ha
  Blackgrass plant response rating: 2
[2]; Rate 250 g/ha, Postemergence
  Plant response rating, Blackgrass: 4
[2]; [16]
  Plant response rating, Blackgrass: 3
[3]; Rate 62 g/ha, Postemergence
  Plant response rating, B. signalgrass: 3
[3]; Rate 62 g/ha
  B. signalgrass plant response rating: 3
[3]; Rate 125 g/ha, Postemergence
  Plant response rating, B. signalgrass: 3
[3]; Rate 125 g/ha
  B. signalgrass plant response rating: 9
[3]; Rate 250 g/ha, Postemergence
  Plant response rating, B. signalgrass: 5
[3]; Rate 250 g/ha, Postemergence as printed in head r139 (second section for compounds 26-50)
  Plant response rating, B. signalgrass: 9
[4]; Rate 62 g/ha
  Plant response rating, Cocklebur: 6
  Cocklebur plant response rating: 0
[4]; Rate 125 g/ha
  Plant response rating, Cocklebur: 6
  Cocklebur plant response rating: 0
[4]; Rate 250 g/ha
  Plant response rating, Cocklebur: 7
Corn (Zea mays); Rate 62 g/ha, Postemergence
  Plant response rating, Corn: 2
Corn (Zea mays); Rate 62 g/ha
  Corn plant response rating: 0
Corn (Zea mays); Rate 125 g/ha, Postemergence
  Plant response rating, Corn: 2
Corn (Zea mays); Rate 125 g/ha
  Corn plant response rating: 0
Corn (Zea mays); Rate 250 g/ha, Postemergence
  Plant response rating, Corn: 2
Corn (Zea mays); [16]
  Plant response rating, Corn: 1
[5]; Rate 62 g/ha, Postemergence
  Plant response rating, Crabgrass: 4
[5]; Rate 62 g/ha
  Crabgrass plant response rating: 1
[5]; Rate 125 g/ha, Postemergence
  Plant response rating, Crabgrass: 8
[5]; Rate 125 g/ha
  Crabgrass plant response rating: 4
[5]; Rate 250 g/ha, Postemergence
  Plant response rating, Crabgrass: 9
[5]; [16]
  Plant response rating, Crabgrass: 10
[6]; Rate 62 g/ha, Postemergence
  Plant response rating, Giant foxtail: 2
[6]; Rate 62 g/ha, Preemergence
  Giant foxtail plant response rating: 2
[6]; Rate 125 g/ha, Postemergence
  Giant foxtail plant response rating: 3
[6]; Rate 125 g/ha, Preemergence
  Giant foxtail plant response rating: 5
[6]; Rate 250 g/ha, Postemergence
  Plant response rating, Giant foxtail: 3
[6]; [16]
  Plant response rating, Giant foxtail: 10
[7]; Rate 62 g/ha, Postemergence
  Plant response rating, Morningglory: 3
[7]; Rate 62 g/ha, Preemergence
  Morningglory plant response rating: 0
[7]; Rate 125 g/ha, Postemergence
  Morningglory plant response rating: 3
[7]; Rate 125 g/ha, Preemergence
  Morningglory plant response rating: 2
[7]; Rate 250 g/ha, Postemergence
  Plant response rating, Morningglory: 4
[7]; [16]
  Plant response rating, Morningglory: 2
[8]; Rate 62 g/ha, Postemergence
  Plant response rating, Redroot pigweed: 8
[8]; Rate 62 g/ha, Preemergence
  Redroot pigweed plant response rating: 1
[8]; Rate 125 g/ha, Postemergence
  Redroot pigweed plant response rating: 9
[8]; Rate 125 g/ha, Preemergence
  Redroot pigweed plant response rating: 2
[8]; Rate 250 g/ha, Postemergence
  Plant response rating, Redroot pigweed: 9
[8]; [16]
  Plant response rating, Redroot pigweed: 3
[9]; Rate 62 g/ha, Postemergence
  Plant response rating, Nutsedge: 0
[9]; Rate 62 g/ha, Preemergence
  Nutsedge plant response rating: 0
[9]; Rate 125 g/ha, Postemergence
  Nutsedge plant response rating: 0
[9]; Rate 125 g/ha, Preemergence
  Nutsedge plant response rating: 0
[9]; [16]
  Plant response rating, Nutsedge: 0
Rape (Brassica napus); Rate 62 g/ha, Postemergence
  Plant response rating, Rape: 8
Rape (Brassica napus); Rate 62 g/ha, Preemergence
  Rape plant response rating: 0
Rape (Brassica napus); Rate 125 g/ha, Postemergence
  Rape plant response rating: 8
Rape (Brassica napus); Rate 125 g/ha, Preemergence
  Rape plant response rating: 0
Rape (Brassica napus); Rate 250 g/ha, Postemergence
  Plant response rating, Rape: 9
Rape (Brassica napus); [16]
  Plant response rating, Rape: 1
Soybean (Glycine max); Rate 62 g/ha, Postemergence
  Plant response rating, Soybean: 4
Soybean (Glycine max); Rate 62 g/ha, Preemergence
  Soybean plant response rating: 0
Soybean (Glycine max); Rate 125 g/ha, Postemergence
  Soybean plant response rating: 4
Soybean (Glycine max); Rate 125 g/ha, Preemergence
  Plant response rating, Soybean: 0
Soybean (Glycine max); Rate 250 g/ha, Postemergence
  Plant response rating, Soybean: 7
Soybean (Glycine max); [16]
  Plant response rating, Soybean: 0
[10]; Rate 62 g/ha, Postemergence
  Plant response rating, Sugarbeets: 10
[10]; Rate 62 g/ha, Preemergence
  Sugarbeets plant response rating: 0
[10]; Rate 125 g/ha, Postemergence
  Sugarbeets plant response rating: 10
[10]; Rate 125 g/ha, Preemergence
  Plant response rating, Sugarbeets: 0
[10]; Rate 250 g/ha, Postemergence
  Plant response rating, Sugarbeets: 10
[10]; [16]
  Plant response rating, Sugarbeets: 3
[11]; Rate 62 g/ha, Postemergence
  Plant response rating, Velvetleaf: 2
[11]; Rate 62 g/ha, Preemergence
  Velvetleaf plant response rating: 0
[11]; Rate 125 g/ha, Postemergence
  Velvetleaf plant response rating: 2
[11]; Rate 125 g/ha, Preemergence
  Plant response rating, Velvetleaf: 0
[11]; Rate 250 g/ha, Postemergence
  Plant response rating, Velvetleaf: 4
[11]; [16]
  Plant response rating, Velvetleaf: 0
[12]; Rate 62 g/ha, Postemergence
  Wheat plant response rating: 1
[12]; Rate 62 g/ha, Preemergence
  Wheat plant response rating: 0
[12]; Rate 125 g/ha, Postemergence
  Wheat plant response rating: 3
[12]; Rate 125 g/ha, Preemergence
  Plant response rating, Wheat: 0
[12]; Rate 250 g/ha, Postemergence
  Plant response rating, Wheat: 4
[12]; [16]
  Plant response rating, Wheat: 0
Wild oat (Avena fatua); Rate 62 g/ha, Postemergence
  Wild oats plant response rating: 2
Wild oat (Avena fatua); Rate 62 g/ha, Preemergence
  Wild oats plant response rating: 0
Wild oat (Avena fatua); Rate 125 g/ha, Postemergence
  Wild oats plant response rating: 3
Wild oat (Avena fatua); Rate 125 g/ha, Preemergence
  Plant response rating, Wild oats: 1
Wild oat (Avena fatua); Rate 250 g/ha, Postemergence
  Plant response rating, Wild oats: 4
Wild oat (Avena fatua); [16]
  Plant response rating, Wild oats: 2
[13]; [17]
  Plant response rating, Barnyardgrass: 2
[13]; [18]
  Plant response rating, Barnyardgrass: 3
[13]; [19]
  Plant response rating, Barnyardgrass: 5
[14]; [17]
  Plant response rating, Ducksalad: 1
[14]; [18]
  Plant response rating, Ducksalad: 2
[14]; [19]
  Plant response rating, Ducksalad: 6
Rice (Oryza sativa); [17]
  Plant response rating, Rice: 1
Rice (Oryza sativa); [20]
  Rice plant response rating: 2
Rice (Oryza sativa); [19]
  Plant response rating, Rice: 3
[15]; [17]
  Plant response rating, S. Flatsedge: 4
[15]; [20]
  S. Flatsedge plant response rating: 7
[15]; [19]
  Plant response rating, S. Flatsedge: 8
